# Reference: ChEMBL document CHEMBL5113368, “Meroterpenoids produced by fungi: Occurrence, structural diversity, biological activities, and their molecular targets” (Eur J Med Chem, 2021)
# Key:
# Acetylcholinesterase [1] = molecular target: T1, Acetylcholinesterase (Homo sapiens, UniProt P22303); assay: Inhibition of human erythrocyte AChE using acetylthiocholine iodide as substrate incubated for 20 mins by DTNB reagent based spectrophotometric method
# [2] = molecular target: T2, Tyrosine-protein kinase JAK3 (Homo sapiens, UniProt P52333); assay: Inhibition of JAK3 (unknown origin) by FRET-based Z'-Lyte assay
# T2 sequence (P52333 whole entry): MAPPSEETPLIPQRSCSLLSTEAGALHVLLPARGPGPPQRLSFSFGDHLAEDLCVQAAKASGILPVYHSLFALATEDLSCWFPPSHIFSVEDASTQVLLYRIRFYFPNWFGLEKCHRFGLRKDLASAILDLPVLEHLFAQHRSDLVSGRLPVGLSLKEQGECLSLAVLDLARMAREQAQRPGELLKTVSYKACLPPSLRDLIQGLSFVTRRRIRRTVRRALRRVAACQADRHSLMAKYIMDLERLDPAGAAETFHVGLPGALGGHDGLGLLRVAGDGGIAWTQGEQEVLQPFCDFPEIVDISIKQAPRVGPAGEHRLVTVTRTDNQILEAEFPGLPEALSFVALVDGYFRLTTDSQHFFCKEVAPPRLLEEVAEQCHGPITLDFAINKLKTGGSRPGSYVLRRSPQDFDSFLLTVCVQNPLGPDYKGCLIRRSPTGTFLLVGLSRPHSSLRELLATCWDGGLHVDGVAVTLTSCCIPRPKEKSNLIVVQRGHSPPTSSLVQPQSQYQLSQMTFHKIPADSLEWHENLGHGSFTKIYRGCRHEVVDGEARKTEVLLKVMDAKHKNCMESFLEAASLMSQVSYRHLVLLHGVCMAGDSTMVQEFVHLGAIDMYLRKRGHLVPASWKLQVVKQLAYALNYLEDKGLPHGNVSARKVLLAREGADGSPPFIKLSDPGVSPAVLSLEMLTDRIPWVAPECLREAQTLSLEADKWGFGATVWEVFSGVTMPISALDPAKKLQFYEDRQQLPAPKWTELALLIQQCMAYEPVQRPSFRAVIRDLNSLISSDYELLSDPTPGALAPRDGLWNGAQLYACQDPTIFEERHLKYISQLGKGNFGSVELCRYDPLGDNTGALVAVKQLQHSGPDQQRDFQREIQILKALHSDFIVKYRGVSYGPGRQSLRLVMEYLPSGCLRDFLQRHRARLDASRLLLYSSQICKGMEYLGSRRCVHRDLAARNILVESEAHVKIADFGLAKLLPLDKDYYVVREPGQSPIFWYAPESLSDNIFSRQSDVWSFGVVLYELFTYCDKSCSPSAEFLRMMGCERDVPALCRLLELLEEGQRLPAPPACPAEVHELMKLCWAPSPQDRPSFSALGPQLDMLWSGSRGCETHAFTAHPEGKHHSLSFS
# [3] = molecular target: Epithelial discoidin domain-containing receptor 1 (Homo sapiens, UniProt Q08345); assay: Inhibition of DDR1 (unknown origin) by lanthascreen eu kinase activity assay
# Acetylcholinesterase [4] = molecular target: T1, Acetylcholinesterase; assay: Inhibition of AChE (unknown origin)
# [5] = Inhibition of Saccharomyces cerevisiae alpha-glucosidase using p-nitrophenyl-alpha-D -glucopyranoside as substrate pre-incubated for 10 mins followed by substrate addition measured after 15 mins by absorbance based analysis
# RAW264.7 = assay: Anti-inflammatory activity in mouse RAW264.7 cells assessed as inhibition of NO production; assay type: functional, cell-based
# [6] = molecular target: T3, Tyrosine-protein phosphatase non-receptor type 1 (Homo sapiens, UniProt P18031); assay: Inhibition of PTP1B (unknown origin) using pNPP as substrate by spectrophotometer analysis
# T3 sequence (P18031 whole entry): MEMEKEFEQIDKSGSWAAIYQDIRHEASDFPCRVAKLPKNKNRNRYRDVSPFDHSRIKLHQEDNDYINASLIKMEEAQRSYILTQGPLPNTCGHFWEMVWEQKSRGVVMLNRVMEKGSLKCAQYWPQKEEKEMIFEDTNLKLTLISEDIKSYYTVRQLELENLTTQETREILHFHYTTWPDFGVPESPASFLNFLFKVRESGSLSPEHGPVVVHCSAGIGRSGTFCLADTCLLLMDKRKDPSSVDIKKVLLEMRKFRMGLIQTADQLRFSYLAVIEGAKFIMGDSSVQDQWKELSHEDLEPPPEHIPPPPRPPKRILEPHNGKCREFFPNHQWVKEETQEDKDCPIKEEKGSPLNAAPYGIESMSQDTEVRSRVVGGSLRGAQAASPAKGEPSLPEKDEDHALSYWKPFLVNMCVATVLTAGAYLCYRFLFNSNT
# K562 = assay: Cytotoxicity against human K562 cells assessed as cell growth inhibition by CCK-8 method; assay type: functional, cell-based
# HL-60 = assay: Cytotoxicity against human HL-60 cells assessed as cell growth inhibition measured after 24 hrs by MTT assay; assay type: functional, cell-based; conditions: HL-60, 24 h
# THP-1 = assay: Cytotoxicity against human THP-1 cells assessed as cell growth inhibition measured after 24 hrs by MTT assay; assay type: functional, cell-based; conditions: THP-1, 24 h
# [7] = molecular target: T4, Prostaglandin G/H synthase 2 (Homo sapiens, UniProt P35354); assay: Inhibition of COX-2 (unknown origin)
# T4 sequence (P35354 whole entry): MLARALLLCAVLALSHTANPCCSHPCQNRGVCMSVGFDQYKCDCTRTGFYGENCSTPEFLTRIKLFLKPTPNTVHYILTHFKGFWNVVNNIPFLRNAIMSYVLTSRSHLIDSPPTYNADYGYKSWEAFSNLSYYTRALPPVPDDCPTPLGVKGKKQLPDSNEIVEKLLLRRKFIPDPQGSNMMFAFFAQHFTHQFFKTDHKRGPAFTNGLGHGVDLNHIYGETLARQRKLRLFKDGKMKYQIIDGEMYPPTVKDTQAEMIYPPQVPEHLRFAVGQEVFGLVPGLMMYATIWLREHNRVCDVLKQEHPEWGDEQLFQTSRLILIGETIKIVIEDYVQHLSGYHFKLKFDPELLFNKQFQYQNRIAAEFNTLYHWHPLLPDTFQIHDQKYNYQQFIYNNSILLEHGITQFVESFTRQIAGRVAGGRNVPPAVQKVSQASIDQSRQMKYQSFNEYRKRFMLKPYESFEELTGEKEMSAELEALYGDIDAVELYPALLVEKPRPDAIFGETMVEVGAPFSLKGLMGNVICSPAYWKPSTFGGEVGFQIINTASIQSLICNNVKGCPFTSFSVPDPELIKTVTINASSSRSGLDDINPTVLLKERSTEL
# T1 sequence (P22303 whole entry): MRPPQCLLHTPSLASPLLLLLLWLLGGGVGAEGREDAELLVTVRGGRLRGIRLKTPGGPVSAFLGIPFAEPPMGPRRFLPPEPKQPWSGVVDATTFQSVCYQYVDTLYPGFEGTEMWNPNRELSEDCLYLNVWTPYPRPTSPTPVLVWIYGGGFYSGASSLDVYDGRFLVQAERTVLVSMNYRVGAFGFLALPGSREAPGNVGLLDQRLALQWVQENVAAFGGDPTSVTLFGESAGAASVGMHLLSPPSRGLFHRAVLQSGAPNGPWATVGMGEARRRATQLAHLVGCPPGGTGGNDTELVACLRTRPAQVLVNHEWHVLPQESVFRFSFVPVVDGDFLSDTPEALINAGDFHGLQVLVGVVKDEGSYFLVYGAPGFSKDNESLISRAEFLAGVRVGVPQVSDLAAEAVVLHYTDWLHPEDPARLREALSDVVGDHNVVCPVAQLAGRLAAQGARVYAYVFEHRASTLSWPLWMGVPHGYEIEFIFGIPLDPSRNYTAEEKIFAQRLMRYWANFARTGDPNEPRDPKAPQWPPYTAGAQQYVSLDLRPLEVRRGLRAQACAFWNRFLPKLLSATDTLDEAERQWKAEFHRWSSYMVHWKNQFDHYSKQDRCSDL
# Epithelial discoidin domain-containing receptor 1, sequence (Q08345 whole entry, the tested form may be a part): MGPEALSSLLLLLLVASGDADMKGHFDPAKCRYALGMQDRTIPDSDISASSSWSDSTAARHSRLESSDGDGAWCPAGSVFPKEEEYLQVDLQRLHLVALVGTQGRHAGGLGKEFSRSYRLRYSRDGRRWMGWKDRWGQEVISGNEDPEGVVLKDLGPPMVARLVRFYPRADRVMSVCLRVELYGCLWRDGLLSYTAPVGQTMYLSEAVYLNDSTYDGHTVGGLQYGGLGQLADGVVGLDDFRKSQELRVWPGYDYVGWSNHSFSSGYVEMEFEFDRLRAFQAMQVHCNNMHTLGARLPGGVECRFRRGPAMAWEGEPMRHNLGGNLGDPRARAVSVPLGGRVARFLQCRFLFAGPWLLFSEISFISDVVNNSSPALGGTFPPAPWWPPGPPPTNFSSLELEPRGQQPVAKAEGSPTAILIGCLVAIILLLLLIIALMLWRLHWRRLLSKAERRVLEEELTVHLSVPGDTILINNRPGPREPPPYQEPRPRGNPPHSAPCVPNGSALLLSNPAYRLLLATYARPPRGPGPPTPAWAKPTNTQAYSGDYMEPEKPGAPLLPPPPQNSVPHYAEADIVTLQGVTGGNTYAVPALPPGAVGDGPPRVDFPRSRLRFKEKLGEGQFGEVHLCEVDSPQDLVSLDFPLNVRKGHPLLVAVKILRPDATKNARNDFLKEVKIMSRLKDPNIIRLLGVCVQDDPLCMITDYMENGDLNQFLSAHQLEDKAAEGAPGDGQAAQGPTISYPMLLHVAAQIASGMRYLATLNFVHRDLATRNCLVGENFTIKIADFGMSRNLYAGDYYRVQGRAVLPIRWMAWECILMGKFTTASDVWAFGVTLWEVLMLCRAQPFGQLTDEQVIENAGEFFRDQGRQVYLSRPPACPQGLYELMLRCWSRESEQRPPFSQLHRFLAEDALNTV
structure (smiles),measurement,setting,value
CCOC1(c2cc(O)ccc2O)C=C(CC/C=C(\C)CCC=C(C)C)C(=O)O1 (stereo not drawn),IC50,Acetylcholinesterase [1],7.37 µM
CO[C@H]1OC(=O)[C@@]2(CC(=O)c3cc(O)ccc3O)C[C@@H]3[C@@H](C/C=C(\CC(=O)c4cc(O)ccc4O)C(=O)O)C(C=O)=CO[C@@H]3[C@@]12C (racemic),IC50,[2],< 10 µM
same,IC50,[3],8.2 µM
COc1ccc(-c2cc3c(c(=O)o2)C[C@]2(O)[C@@]4(C)CC[C@@H](O)C(C)(C)[C@]4(O)CC[C@@]2(C)O3)cc1,IC50,Acetylcholinesterase [4],0.64 µM
C/C(=C\Cc1c(O)cc2c(c1O)CN(CCCC[C@@H](C(=O)O)N1Cc3c(cc(O)c(C/C=C(\C)CC/C=C(\C)C(=O)O)c3O)C1=O)C2=O)CC/C=C(\C)C(=O)O,IC50,[5],39.2 µM
CC1(C)CCC[C@]23C[C@](CC(=O)c4cc(O)ccc4O)(CC[C@@H]12)C(=O)O3,IC50,RAW264.7,5.9 µM
CO[C@H]1OC(=O)[C@@]2(CC(=O)c3cc(O)ccc3O)C[C@@H]3[C@@H](CCC4=C[C@@H](c5cc(O)ccc5O)OC4=O)C(C=O)=CO[C@@H]3[C@@]12C (racemic),IC50,[2],< 10 µM
COC/C(C=O)=C\CCC1=CC(c2cc(O)ccc2O)OC1=O (stereo not drawn),IC50,Acetylcholinesterase [1],8.52 µM
CO[C@@H]1c2c3c(cc(O)c2C(=O)O[C@@H]1C)O[C@@]1(C)[C@@H](O)C[C@H]2C(C)(C)C(=O)C=C[C@]2(C)[C@@H]1C3,IC50,[6],63.1 µM
C=C(C)C1CCC2(C(=O)OCC)CC13Oc1c(C/C=C(\CO)CC/C=C(\C)CCC=C(C)C)cc(O)cc1-c1c(O)ccc(c13)O2 (racemic),IC50,K562,7.68 µM
CO[C@@H]1OC(=O)[C@]2(CC(=O)c3cc(O)ccc3O)C[C@H]3[C@H](C/C=C(\CC(=O)c4cc(O)ccc4O)C(=O)O)C(C=O)=CO[C@H]3[C@]12C,IC50,[3],6.9 µM
CO[C@H]1OC(=O)[C@@]2(CC(=O)c3cc(O)ccc3O)C[C@@H]3[C@@H](CCC4=C[C@H](c5cc(O)ccc5O)OC4=O)C(C=O)=CO[C@@H]3[C@@]12C (racemic),IC50,[2],< 10 µM
CC(=O)O[C@@H]1c2c3c(cc(O)c2C(=O)O[C@@H]1C)O[C@@]1(C)[C@@H](O)C[C@H]2C(C)(C)[C@@H](O)C=C[C@]2(C)[C@@H]1C3,IC50,[6],62.5 µM
C[C@@H]1Cc2c3c(c(Cl)c(O)c2C(=O)O1)O[C@@]1(C)[C@@H](O)C[C@H]2C(C)(C)C(=O)C(Cl)(Cl)C[C@]2(C)[C@@H]1C3,IC50,[6],71.6 µM
COC(=O)CC1=C(C)[C@@H]2C[C@@]3(C)C(=O)O[C@H]4O[C@@H](C)C(=O)[C@](C(=O)OC)([C@H]43)[C@@]2(C)CC=C1C(C)(C)OC,IC50,HL-60,7.9 µM
same,IC50,THP-1,11.3 µM
COC1(c2cc(O)ccc2O)C=C(CC[C@@H]2C(C)(C)[C@@H]3CC[C@]2(C)O3)C(=O)O1 (stereo partly drawn),IC50,[7],9.96 µM
COC(=O)[C@H](CCCCN1Cc2c(cc(O)c(C/C=C(\C)CC/C=C(\C)C(=O)O)c2O)C1=O)N1Cc2c(cc(O)c(C/C=C(\C)CC/C=C(\C)C(=O)O)c2O)C1=O,IC50,[5],36.2 µM
